{"source": "patent US20080153896A1", "about": "“Polymorphic Forms of an HMG-CoA Reductase Inhibitor and Uses Thereof” (priority 2006, published 2008)", "key": {"[1]": {"system": "cholesterol synthesis", "assay": "Inhibition of cholesterol synthesis in an in vivo rat model", "settings": "vs atorvastatin"}, "[2]": {"system": "NRK-49F (Fibroblast) and L6 (Myoblast)", "assay": "Inhibition of cholesterol synthesis in extra hepatic cells/cell lines"}, "[3]": {"assay": "Intrinsic clearance in human liver microsomes", "settings": "vs atorvastatin"}, "[4]": {"target": "T1, 3-hydroxy-3-methylglutaryl-coenzyme A (HMG-CoA) reductase (Homo sapiens, UniProt P04035)", "T1 sequence (P04035 1-888)": "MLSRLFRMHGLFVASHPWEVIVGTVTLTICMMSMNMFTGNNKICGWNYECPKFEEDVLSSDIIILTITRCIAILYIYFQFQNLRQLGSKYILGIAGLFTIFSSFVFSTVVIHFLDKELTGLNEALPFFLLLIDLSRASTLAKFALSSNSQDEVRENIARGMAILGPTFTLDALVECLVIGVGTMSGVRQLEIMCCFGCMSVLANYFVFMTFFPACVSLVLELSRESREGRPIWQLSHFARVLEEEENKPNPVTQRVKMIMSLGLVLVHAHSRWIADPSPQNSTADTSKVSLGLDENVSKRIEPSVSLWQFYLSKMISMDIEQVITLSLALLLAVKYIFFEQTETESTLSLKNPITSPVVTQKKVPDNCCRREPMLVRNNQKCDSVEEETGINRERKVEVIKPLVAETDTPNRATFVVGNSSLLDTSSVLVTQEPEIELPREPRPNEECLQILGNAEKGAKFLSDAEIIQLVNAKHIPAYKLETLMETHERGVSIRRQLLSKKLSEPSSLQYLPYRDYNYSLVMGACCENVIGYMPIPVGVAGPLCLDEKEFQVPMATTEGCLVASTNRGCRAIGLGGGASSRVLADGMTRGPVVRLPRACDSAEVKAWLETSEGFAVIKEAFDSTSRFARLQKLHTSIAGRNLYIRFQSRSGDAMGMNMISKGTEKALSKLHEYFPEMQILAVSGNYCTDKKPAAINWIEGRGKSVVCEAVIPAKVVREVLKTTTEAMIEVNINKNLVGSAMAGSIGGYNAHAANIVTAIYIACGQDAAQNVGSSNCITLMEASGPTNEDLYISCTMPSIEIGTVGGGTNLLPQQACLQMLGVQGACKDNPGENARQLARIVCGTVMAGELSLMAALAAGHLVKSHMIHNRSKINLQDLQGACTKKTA", "assay": "HMG-CoA reductase inhibition, potency compared with atorvastatin", "assay_type": "biochemical", "settings": "vs atorvastatin"}, "[5]": {"target": "CYP3A4 (cytochrome P450 3A4) (Homo sapiens, UniProt P08684)", "sequence (P08684 whole entry)": "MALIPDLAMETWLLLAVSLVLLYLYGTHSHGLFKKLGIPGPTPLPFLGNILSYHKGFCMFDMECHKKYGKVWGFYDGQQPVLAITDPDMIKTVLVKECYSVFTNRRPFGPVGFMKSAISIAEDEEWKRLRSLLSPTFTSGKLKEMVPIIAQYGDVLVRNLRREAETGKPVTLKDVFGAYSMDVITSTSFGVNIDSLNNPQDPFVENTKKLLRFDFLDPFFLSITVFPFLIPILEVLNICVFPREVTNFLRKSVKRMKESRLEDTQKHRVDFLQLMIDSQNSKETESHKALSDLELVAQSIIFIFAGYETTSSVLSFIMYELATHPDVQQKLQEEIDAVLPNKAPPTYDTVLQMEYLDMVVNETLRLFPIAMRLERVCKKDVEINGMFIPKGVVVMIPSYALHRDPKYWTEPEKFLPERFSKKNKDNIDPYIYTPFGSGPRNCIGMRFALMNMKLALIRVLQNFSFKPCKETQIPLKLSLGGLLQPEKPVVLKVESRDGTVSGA", "assay": "Substrate for metabolic enzyme CYP3A4"}, "[6]": {"system": "rat primary hepatocytes", "assay": "Inhibition of cholesterol synthesis in rat primary hepatocytes", "assay_type": "cell-based", "settings": "vs atorvastatin"}}}
{"substance": "(3R,5R)-7-[2-(4-fluorophenyl)-5-isopropyl-3-phenyl-4-[(4-hydroxymethylphenylamino)carbonyl]-pyrrol-1-yl]-3,5-dihydroxy-heptanoic acid hemi calcium salt [compound of Formula I]", "values": [{"measurement": "potency in inhibiting cholesterol synthesis", "setting": "[1]", "value": "more potent than atorvastatin"}, {"measurement": "selectivity, inhibition of cholesterol synthesis in rat primary hepatocytes over extra hepatic cells/cell lines", "setting": "[2]; NRK-49F and L6, vs atorvastatin", "value": "greater"}, {"measurement": "hepatoselectivity", "setting": "[2]; vs atorvastatin", "value": "better hepatoselectivity"}, {"measurement": "intrinsic clearance", "setting": "[3]", "value": "significantly less than atorvastatin"}, {"measurement": "potency relative to atorvastatin", "setting": "[4]", "value": "equipotent to atorvastatin"}, {"measurement": "substrate for the metabolic enzyme CYP3A4", "setting": "[5]", "value": "not a major substrate"}, {"measurement": "potency in the inhibition of cholesterol synthesis", "setting": "[6]", "value": "greater potency"}]}
